Several values for one entry are separate records, joined by “and”; a condition that tells them apart may be missing. Equal values may be shown once.
Key:
[1] = target: T1, E. faecium PolC^F1276L (exonuclease-inactivated) (Enterococcus faecium, UniProt A0A9X4B319, D429A/E431A/F1274L); assay: Real-time DNA primer extension assay; format: biochemical; settings: for rate of activity (slope of fluorescence intensity change over time): Fig. 4b source data, F1276L
T1 sequence (A0A9X4B319 1-1450 D429A/E431A/F1274L): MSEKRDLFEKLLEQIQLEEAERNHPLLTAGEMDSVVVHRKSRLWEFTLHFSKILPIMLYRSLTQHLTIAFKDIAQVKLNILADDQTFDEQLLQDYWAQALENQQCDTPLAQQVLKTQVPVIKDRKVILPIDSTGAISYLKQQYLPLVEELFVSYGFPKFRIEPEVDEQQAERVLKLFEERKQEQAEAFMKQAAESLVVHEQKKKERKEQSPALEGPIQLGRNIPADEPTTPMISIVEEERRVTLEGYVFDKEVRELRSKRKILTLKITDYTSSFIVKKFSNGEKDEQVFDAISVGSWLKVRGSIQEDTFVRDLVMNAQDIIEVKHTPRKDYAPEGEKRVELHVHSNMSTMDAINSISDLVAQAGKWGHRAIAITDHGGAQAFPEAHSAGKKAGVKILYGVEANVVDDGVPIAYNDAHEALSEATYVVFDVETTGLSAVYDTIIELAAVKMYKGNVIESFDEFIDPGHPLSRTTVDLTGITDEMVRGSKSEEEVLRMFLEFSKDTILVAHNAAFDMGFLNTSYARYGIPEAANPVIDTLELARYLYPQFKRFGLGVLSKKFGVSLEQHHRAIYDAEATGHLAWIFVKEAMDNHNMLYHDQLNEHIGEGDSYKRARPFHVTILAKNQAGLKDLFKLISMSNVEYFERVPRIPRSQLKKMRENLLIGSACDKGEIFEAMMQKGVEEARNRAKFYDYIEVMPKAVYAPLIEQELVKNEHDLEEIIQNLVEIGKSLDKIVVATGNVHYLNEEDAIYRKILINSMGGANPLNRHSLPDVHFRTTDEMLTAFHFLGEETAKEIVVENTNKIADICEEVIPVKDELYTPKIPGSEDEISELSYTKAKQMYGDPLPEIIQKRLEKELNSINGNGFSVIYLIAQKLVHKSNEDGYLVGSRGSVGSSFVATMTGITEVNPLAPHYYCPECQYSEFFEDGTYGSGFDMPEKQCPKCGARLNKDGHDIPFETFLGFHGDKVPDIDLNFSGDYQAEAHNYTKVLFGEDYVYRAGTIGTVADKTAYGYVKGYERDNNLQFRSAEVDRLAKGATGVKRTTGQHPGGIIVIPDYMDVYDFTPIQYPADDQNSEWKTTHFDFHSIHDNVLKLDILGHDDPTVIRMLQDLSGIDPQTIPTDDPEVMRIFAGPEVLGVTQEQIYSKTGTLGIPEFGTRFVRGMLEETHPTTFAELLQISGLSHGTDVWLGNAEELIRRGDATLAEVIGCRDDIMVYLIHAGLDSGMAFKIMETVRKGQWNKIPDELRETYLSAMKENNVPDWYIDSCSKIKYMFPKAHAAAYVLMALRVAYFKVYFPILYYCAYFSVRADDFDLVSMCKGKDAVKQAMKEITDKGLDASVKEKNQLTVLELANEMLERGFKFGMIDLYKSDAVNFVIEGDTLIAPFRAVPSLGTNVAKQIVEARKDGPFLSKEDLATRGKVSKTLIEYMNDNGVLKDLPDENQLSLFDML
Description: (§1) The genes for PolC (locus_tag: MIBBHLJO_01574) and DnaE (locus_tag: MIBBHLJO_00911) from E. faecium ATCC 700221 were codon-optimized for expression in E. coli and synthesized in vector pET28b by Twist Bioscience (San Francisco, CA). Expression constructs for variant PolC proteins were created with QuikChange Site-Directed Mutagenesis (Agilent) with oligonucleotides listed in Supplementary Table 3. F1276L, F1276S, and A1281T were introduced to assess the effect of these mutations on inhibition by ACX compounds. Mutations D972A and D974A were introduced to inactivate the polymerase activity and mutations D431A and E433A were introduced to inactivate the exonuclease activity (Fig. 1d, Supplementary Fig. 1).
(§2) Polymerase activity was monitored in real-time[31],[32] with a 42-nt long 5’ carboxyfluorescein-labelled DNA oligonucleotide template strand (DNASP8_42) annealed to a 30-nt primer oligonucleotide (oMU014). Polymerase activity in this assay is monitored by measuring fluorescence quenching of the labelled DNA template as a result of primer extension by PolC (for details see Supplementary Fig. 1b, c). Both primers were HPLC purified. Primer extension assays were performed in Reaction Buffer (see Gel-based polymerase and exonuclease assays) supplemented with 0.5 mg/mL BSA, 0.05% Tween20 and 25 uM of each dNTP (SRB) in 384-well Black Round Bottom plates (Corning 4514). The polymerase was diluted in the SRB and incubated for at least 5 min in the presence of inhibitor or solvent, with a final solvent concentration of 1%. The reaction was initiated by the addition of an equal volume of DNA substrate in SRB as described below. Fluorescence emission data was collected with a BMG Labtech PHERAstar FSX reader for 30 min at room temperature.
(§3) Compounds were dispensed with an Echo acoustic liquid handler (Beckman Coulter). All compounds were dissolved to 1 mM and 10 mM stocks in 100% DMSO and transferred to Echo LDV or PP source plates (Labcyte, Inc., CA), then dispensed to 384-well plates with a Labcyte Echo550 or Echo650 acoustic dispenser at volumes of 2.5 to 100 nL per well. […] A Mantis microfluidic liquid dispenser (Formulatrix) was used to dispense 5 µL polymerase and 5 µL substrate DNA (individually diluted in SRB) per well. […] The final concentration of DNA was 70 nM.
(§4) Data were analysed and standard error of the means (SEM) determined in Prism 8.4.2 and 10.2.3 (GraphPad). Raw time-course polymerase activity was plotted against time, with SEM of triplicates determined. The rate of activity (represented by signal quenching) was determined during the first 8 min (linear stage) by calculating the slope of fluorescence intensity change (converted to a positive value) over time (in seconds). The slopes were then normalized to percentage activity (%); per ‘replicate range’, 100% activity was defined as polymerase activity in the absence of inhibitor (polymerase control), and 0% activity was determined in the absence of polymerase (DNA signal; negative control). The SEM was determined between ‘replicate ranges’. The IC50 was determined using the dose-response (inhibition) nonlinear regression ‘[Inhibitor] vs. response (three parameters)’ without constraints.

[2] = tested on: E. faecium PolC^F1276L (exonuclease-inactivated); assay: Real-time DNA primer extension assay; format: biochemical, Enterococcus faecium; settings: versus wild-type PolC
Description: as §1, §2, §3, §4

SMILES	IC50 [1]	rate of activity (slope of fluorescence intensity change over time) ([1]; inhibitor 4 uM)	rate of activity (slope of fluorescence intensity change over time) ([1]; inhibitor 5.75 uM)	rate of activity (slope of fluorescence intensity change over time) ([1]; inhibitor 8.8 uM)	rate of activity (slope of fluorescence intensity change over time) ([1]; inhibitor 20 uM)	rate of activity (slope of fluorescence intensity change over time) ([1]; inhibitor 30 uM)	rate of activity (slope of fluorescence intensity change over time) ([1]; inhibitor 45 uM)	increase of IC50 by the F1276L mutation [2]	rate of activity (slope of fluorescence intensity change over time) ([1]; inhibitor 67.5 uM)	rate of activity (slope of fluorescence intensity change over time) ([1]; inhibitor 100 uM)	rate of activity (slope of fluorescence intensity change over time) ([1]; inhibitor 150 uM)
O=c1[nH]c(NCc2ccc3c(c2)OC(F)(F)O3)nc2c(F)nn(CCO)c12 [ACX-801, 5-(((2,2-difluorobenzo[d][1,3]dioxol-5-yl)methyl)amino)-3-fluoro-1-(2-hydroxyethyl)-1,6-dihydro-7H-pyrazolo[4,3-d]pyrimidin-7-one]	> 225 µM	29.6 and 27.7 and 30.1	28.5 and 26.4 and 28.8	26.7 and 28.0 and 26.2	25.3 and 26.0 and 26.9	26.3 and 26.7 and 25.0	25.4	> 19 fold	–	–	–
O=c1[nH]c(NCc2ccc(Cl)c(Cl)c2)nc2ncn(CCN3CCOCC3)c12 [IBZ, N^2-(3,4-dichlorobenzyl)-7-(2-[1-morpholinyl]ethyl)guanine]	> 225 µM	28.2 and 29.1 and 29.0	29.9 and 30.4	26.3 and 30.0	26.8 and 26.3	27.4 and 27.1	25.1 and 26.5 and 24.8	> 48 fold	23.8 and 26.5 and 24.8	24.9 and 23.0 and 25.8	23.2
